Tested on: 565726-208-R1-J5-PDC complex spheroids, growth inhibition
Assay: Anticancer human tumor 565726-208-R1-J5-PDC patient-derived pancreatic adenocarcinoma cell line growth inhibition [RAS]
Details: for IC50: curve of first compound; for viability, T/C: stronger effect = lower value
Outline: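 Tumour cells grown as complex spheroids with HUVEC endothelial cells and mesenchymal stem cells, treated with RAS pathway inhibitor combinations. Each agent spans half-log steps from near clinical Cmax, or 10 microM where Cmax is unknown.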

[1] = second compound 0.000949 µM, first compound 0.0316 µM
[2] = second compound 0.000949 µM, first compound 0.1 µM
[3] = second compound 0.000949 µM, first compound 0.316 µM
[4] = second compound 0.000949 µM, first compound 1 µM
[5] = second compound 0.000949 µM, first compound 3.16 µM
[6] = second compound 0.000949 µM, first compound 10 µM
[7] = second compound 0.003 µM, first compound 0.0316 µM
[8] = second compound 0.003 µM, first compound 0.1 µM
[9] = second compound 0.003 µM, first compound 0.316 µM
[10] = second compound 0.003 µM, first compound 1 µM
[11] = second compound 0.003 µM, first compound 3.16 µM
[12] = second compound 0.003 µM, first compound 10 µM
[13] = second compound 0.00949 µM, first compound 0.0316 µM
[14] = second compound 0.00949 µM, first compound 0.1 µM
[15] = second compound 0.00949 µM, first compound 0.316 µM
[16] = second compound 0.00949 µM, first compound 1 µM
[17] = second compound 0.00949 µM, first compound 3.16 µM
[18] = second compound 0.00949 µM, first compound 10 µM
[19] = second compound 0.03 µM, first compound 0.0316 µM
[20] = second compound 0.03 µM, first compound 0.1 µM
[21] = second compound 0.03 µM, first compound 0.316 µM
[22] = second compound 0.03 µM, first compound 1 µM
[23] = second compound 0.03 µM, first compound 3.16 µM
[24] = second compound 0.03 µM, first compound 10 µM
[25] = second compound 0.0949 µM, first compound 0.0316 µM
[26] = second compound 0.0949 µM, first compound 0.1 µM
[27] = second compound 0.0949 µM, first compound 0.316 µM
[28] = second compound 0.0949 µM, first compound 1 µM
[29] = second compound 0.0949 µM, first compound 3.16 µM
[30] = second compound 0.0949 µM, first compound 10 µM
[31] = second compound 0.3 µM, first compound 0.0316 µM
[32] = second compound 0.3 µM, first compound 0.1 µM
[33] = second compound 0.3 µM, first compound 0.316 µM
[34] = second compound 0.3 µM, first compound 1 µM
[35] = second compound 0.3 µM, first compound 3.16 µM
[36] = second compound 0.3 µM, first compound 10 µM
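Note: spheroids exposed to compounds for seven days before readout.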
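Throughout, for viability, T/C: 100% = DMSO vehicle control viability.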

With `CC(C)n1nc(-c2ccc3oc(N)nc3c2)c2c(N)ncnc21` + C#Cc1c(F)ccc2cc(O)cc(-c3ncc4c(N5CC6CCC(C5)N6)nc(OCC56CCCN5CC(F)C6)nc4c3F)c12 the IC50 (second compound 0.0316 µM) was > 100 nM, the IC50 (second compound 0.1 µM) was > 100 nM and the IC50 (second compound 0.316 µM) was > 100 nM. It also gave an IC50 (second compound 1 µM) of 14.4 nM, an IC50 (second compound 3.16 µM) of 5.06 nM and an IC50 (second compound 10 µM) of 4.63 nM. It also gave a viability, T/C (second compound 0.0316 µM, first compound 0.000316 µM) of 108%, a viability, T/C (second compound 0.0316 µM, first compound 0.001 µM) of 156% and a viability, T/C (second compound 0.0316 µM, first compound 0.00316 µM) of 87.2%. The viability, T/C (second compound 0.0316 µM, first compound 0.01 µM) was 68.4%, the viability, T/C (second compound 0.0316 µM, first compound 0.0316 µM) was 63.7% and the viability, T/C (second compound 0.0316 µM, first compound 0.1 µM) was 49.2%. For the same molecule, the viability, T/C (second compound 0.1 µM, first compound 0.000316 µM) was 123%, the viability, T/C (second compound 0.1 µM, first compound 0.001 µM) was 135% and the viability, T/C (second compound 0.1 µM, first compound 0.00316 µM) was 73.8%. For the same molecule, the viability, T/C (second compound 0.1 µM, first compound 0.01 µM) was 72.5%, the viability, T/C (second compound 0.1 µM, first compound 0.0316 µM) was 59.7% and the viability, T/C (second compound 0.1 µM, first compound 0.1 µM) was 51%. It also gave a viability, T/C (second compound 0.316 µM, first compound 0.000316 µM) of 123%, a viability, T/C (second compound 0.316 µM, first compound 0.001 µM) of 149% and a viability, T/C (second compound 0.316 µM, first compound 0.00316 µM) of 83.5%. The viability, T/C (second compound 0.316 µM, first compound 0.01 µM) was 59.8%, the viability, T/C (second compound 0.316 µM, first compound 0.0316 µM) was 50.6% and the viability, T/C (second compound 0.316 µM, first compound 0.1 µM) was 42.8%. The viability, T/C (second compound 1 µM, first compound 0.000316 µM) was 126%, the viability, T/C (second compound 1 µM, first compound 0.001 µM) was 115% and the viability, T/C (second compound 1 µM, first compound 0.00316 µM) was 68.3%. The viability, T/C (second compound 1 µM, first compound 0.01 µM) was 62.4%, the viability, T/C (second compound 1 µM, first compound 0.0316 µM) was 41.7% and the viability, T/C (second compound 1 µM, first compound 0.1 µM) was 40%. It also gave a viability, T/C (second compound 3.16 µM, first compound 0.000316 µM) of 111%, a viability, T/C (second compound 3.16 µM, first compound 0.001 µM) of 107% and a viability, T/C (second compound 3.16 µM, first compound 0.00316 µM) of 56.5%. For the same molecule, the viability, T/C (second compound 3.16 µM, first compound 0.01 µM) was 47.7%, the viability, T/C (second compound 3.16 µM, first compound 0.0316 µM) was 32.9% and the viability, T/C (second compound 3.16 µM, first compound 0.1 µM) was 30.6%. The viability, T/C (second compound 10 µM, first compound 0.000316 µM) was 96.9%, the viability, T/C (second compound 10 µM, first compound 0.001 µM) was 80.5% and the viability, T/C (second compound 10 µM, first compound 0.00316 µM) was 56.4%. It also gave a viability, T/C (second compound 10 µM, first compound 0.01 µM) of 36%, a viability, T/C (second compound 10 µM, first compound 0.0316 µM) of 25.6% and a viability, T/C (second compound 10 µM, first compound 0.1 µM) of 18.4%.
With `CC(=O)OC12COC1CC(O)C1(C)C(=O)C(O)C3=C(C)C(OC(=O)C(O)C(NC(=O)OC(C)(C)C)c4ccccc4)CC(O)(C(OC(=O)c4ccccc4)C21)C3(C)C` (stereo unspecified) + CCn1c(-c2cccnc2C(C)OC)c2c3cc(ccc31)N1CCOC(CC(NC(=O)C(C(C)C)N(C)C(=O)C3(F)CCN(C(=O)C#CC(C)(C)N(C)C)CC3)C(=O)N3CCCC(N3)C(=O)OCC(C)(C)C2)C1 the IC50 (second compound 0.000949 µM) was < 31.6 nM, the IC50 (second compound 0.003 µM) was < 31.6 nM and the IC50 (second compound 0.00949 µM) was < 31.6 nM. For the same molecule, the IC50 (second compound 0.03 µM) was < 31.6 nM, the IC50 (second compound 0.0949 µM) was < 31.6 nM and the IC50 (second compound 0.3 µM) was < 31.6 nM. For the same molecule, the viability, T/C [1] was 15.9%, the viability, T/C [2] was 14.2% and the viability, T/C [3] was 15.5%. The viability, T/C [4] was 16.5%, the viability, T/C [5] was 19.8% and the viability, T/C [6] was 21.5%. For the same molecule, the viability, T/C [7] was 17.4%, the viability, T/C [8] was 16.5% and the viability, T/C [9] was 16.2%. It also gave a viability, T/C [10] of 14.6%, a viability, T/C [11] of 19.8% and a viability, T/C [12] of 22.8%. For the same molecule, the viability, T/C [13] was 17.3%, the viability, T/C [14] was 15.3% and the viability, T/C [15] was 15.9%. The viability, T/C [16] was 15.7%, the viability, T/C [17] was 20.1% and the viability, T/C [18] was 22.8%. It also gave a viability, T/C [19] of 16.3%, a viability, T/C [20] of 16.2% and a viability, T/C [21] of 15%. The viability, T/C [22] was 17%, the viability, T/C [23] was 21.6% and the viability, T/C [24] was 25.4%. The viability, T/C [25] was 15.3%, the viability, T/C [26] was 14.8% and the viability, T/C [27] was 13.2%. It also gave a viability, T/C [28] of 15.3%, a viability, T/C [29] of 20.2% and a viability, T/C [30] of 24.3%. It also gave a viability, T/C [31] of 14.9%, a viability, T/C [32] of 15.8% and a viability, T/C [33] of 14.4%. For the same molecule, the viability, T/C [34] was 13.9%, the viability, T/C [35] was 17.6% and the viability, T/C [36] was 26.2%.
In the case of `C[C@@H](NC(=O)c1ncnc(N)c1Cl)c1ncc(C(=O)Nc2cc(C(F)(F)F)c(Cl)cn2)s1` + CCn1c(-c2cc(N3CCN(C)CC3)cnc2C(C)OC)c2c3cc(ccc31)-c1csc(n1)CC(NC(=O)C1CC1C)C(=O)N1CCCC(N1)C(=O)OCC(C)(C)C2, the IC50 (second compound 0.000949 µM) is reported as > 10000 nM, the IC50 (second compound 0.003 µM) is reported as > 10000 nM and the IC50 (second compound 0.00949 µM) is reported as < 31.6 nM. For the same molecule, the IC50 (second compound 0.03 µM) was < 31.6 nM, the IC50 (second compound 0.0949 µM) was < 31.6 nM and the IC50 (second compound 0.3 µM) was < 31.6 nM. It also gave a viability, T/C [1] of 65.1%, a viability, T/C [2] of 73.5% and a viability, T/C [3] of 76.7%. For the same molecule, the viability, T/C [4] was 69.5%, the viability, T/C [5] was 72.1% and the viability, T/C [6] was 58%. It also gave a viability, T/C [7] of 61%, a viability, T/C [8] of 57.5% and a viability, T/C [9] of 57.3%. For the same molecule, the viability, T/C [10] was 58.1%, the viability, T/C [11] was 56.8% and the viability, T/C [12] was 46.5%. For the same molecule, the viability, T/C [13] was 48%, the viability, T/C [14] was 48.2% and the viability, T/C [15] was 49.9%. The viability, T/C [16] was 48%, the viability, T/C [17] was 52.5% and the viability, T/C [18] was 40.8%. The viability, T/C [19] was 34.9%, the viability, T/C [20] was 39.1% and the viability, T/C [21] was 36.2%. It also gave a viability, T/C [22] of 37.4%, a viability, T/C [23] of 40.3% and a viability, T/C [24] of 31.4%. It also gave a viability, T/C [25] of 31.2%, a viability, T/C [26] of 32.2% and a viability, T/C [27] of 31.7%. The viability, T/C [28] was 32.5%, the viability, T/C [29] was 32.9% and the viability, T/C [30] was 29.1%. For the same molecule, the viability, T/C [31] was 24.6%, the viability, T/C [32] was 27.8% and the viability, T/C [33] was 26.7%. For the same molecule, the viability, T/C [34] was 29.8%, the viability, T/C [35] was 31% and the viability, T/C [36] was 28.2%.
